Assay results published in ChEMBL document CHEMBL1177750, “Cellular localization of clathridimine, an antimicrobial 2-aminoimidazole alkaloid produced by the Mediterranean calcareous sponge Clathrina clathrus” (2010).

How the values were obtained:
Type in all cases: functional
Candida albicans = experiment: Antimicrobial activity against Candida albicans ATCC 66029 at 100 ug/well after 24 hrs at 30 degC by agar diffusion assay; settings: ATCC 66029, 24 h, read-out: DIZ
Staphylococcus aureus = experiment: Antimicrobial activity against Staphylococcus aureus ATCC 6538 at 100 ug/well after 24 hrs at 37 degC by agar diffusion assay; settings: ATCC 6538, 24 h, read-out: DIZ
Escherichia coli = experiment: Antimicrobial activity against Escherichia coli ATCC 8739 at 100 ug/well after 24 hrs at 37 degC by agar diffusion assay; settings: ATCC 8739, 24 h, read-out: DIZ

Compound | zone of inhibition at 100 µg/disc (Candida albicans) [mm] | zone of inhibition at 100 µg/disc (Staphylococcus aureus) [mm] | zone of inhibition at 100 µg/disc (Escherichia coli) [mm]
CCC(C)n1ncn(-c2ccc(N3CCN(c4ccc(OCC5COC(Cn6cncn6)(c6ccc(Cl)cc6Cl)O5)cc4)CC3)cc2)c1=O (centres undefined) [ITRACONAZOLE] | 21 |  | 
CN1C(=N)N=C(Nc2nc(Cc3ccc4c(c3)OCO4)cn2C)C1=O [CLATHRIDIMINE] | 24 | 0 | 15
CN1C(=O)N=C(Nc2nc(Cc3ccc4c(c3)OCO4)cn2C)C1=O [CLATHRIDINE] | 18 | 0 | 0
NC[C@H]1O[C@H](O[C@H]2[C@H](O)[C@@H](O[C@H]3O[C@H](CO)[C@@H](O)[C@H](N)[C@H]3O)[C@H](N)C[C@@H]2N)[C@H](O)[C@@H](O)[C@@H]1O [KANAMYCIN] |  | 37 | 38
